Measured values taken from ChEMBL document CHEMBL3045151, “Long-term pre-exposure of the pest mite Tyrophagus putrescentiae to sub-lethal residues of bifenthrin on rapeseed did not affect its susceptibility to bifenthrin” (2011).
Active and inactive are the calls of the source. The rule behind the calls is not given here.

Experiments:
[1] = tested on: Tyrophagus putrescentiae; experiment: Insecticidal activity against Tyrophagus putrescentiae from compound treated origin in compound treated rapeseed assessed as respiration ppm of co2 per gram of mite fresh weight per hr at sub-lethal concentration at 25 degC, 85% RH measured after 147 days; format: functional
[2] = tested on: Tyrophagus putrescentiae; experiment: Insecticidal activity against Tyrophagus putrescentiae from control origin in compound treated rapeseed assessed as respiration ppm of co2 at sub-lethal concentration at 25 degC, 85% RH measured after 147 days; format: functional
[3] = tested on: Tyrophagus putrescentiae; experiment: Insecticidal activity against Tyrophagus putrescentiae from compound treated origin in compound treated rapeseed assessed as increase in population rate at sub-lethal concentration at 25 degC, 85% RH measured after 147 days; format: functional, organism-based
[4] = tested on: Tyrophagus putrescentiae; experiment: Insecticidal activity against Tyrophagus putrescentiae from control origin in compound treated rapeseed assessed as increase in population rate at sub-lethal concentration at 25 degC, 85% RH measured after 147 days; format: functional, organism-based
[5] = tested on: Tyrophagus putrescentiae; experiment: Insecticidal activity against Tyrophagus putrescentiae in compound treated rapeseed assessed as decrease in population measured after 21 days; format: functional
[6] = tested on: Tyrophagus putrescentiae; experiment: Insecticidal activity against Tyrophagus putrescentiae in compound treated rapeseed assessed as decrease in population at 0.15 to 150 ug/100 g of rapeseed measured after 21 days; format: functional, organism-based
[7] = tested on: Tyrophagus putrescentiae; experiment: Insecticidal activity against Tyrophagus putrescentiae in compound treated rapeseed assessed as mortality after 147 days (reference value: 2.4 ug/cm'2); format: functional
[8] = tested on: Tyrophagus putrescentiae; experiment: Insecticidal activity against Tyrophagus putrescentiae in compound treated rapeseed assessed as mortality (LD95) after 126 days (reference value: 2.4 ug/cm'2); format: functional
[9] = tested on: Tyrophagus putrescentiae; experiment: Insecticidal activity against Tyrophagus putrescentiae in compound treated rapeseed assessed as mortality (LD95) after 105 days (reference value: 2.4 ug/cm'2); format: functional
[10] = tested on: Tyrophagus putrescentiae; experiment: Insecticidal activity against Tyrophagus putrescentiae in compound treated rapeseed assessed as mortality (LD95) after 84 days (reference value: 2.4 ug/cm'2); format: functional
[11] = tested on: Tyrophagus putrescentiae; experiment: Insecticidal activity against Tyrophagus putrescentiae in compound treated rapeseed assessed as mortality (LD95) after 63 days (reference value: 2.4 ug/cm'2); format: functional
[12] = tested on: Tyrophagus putrescentiae; experiment: Insecticidal activity against Tyrophagus putrescentiae in compound treated rapeseed assessed as mortality (LD95) after 42 days (reference value: 2.4 ug/cm'2); format: functional
[13] = tested on: Tyrophagus putrescentiae; experiment: Insecticidal activity against Tyrophagus putrescentiae in compound treated rapeseed assessed as mortality (LD95) after 21 days (reference value: 2.4 ug/cm'2); format: functional
[14] = tested on: Tyrophagus putrescentiae; experiment: Insecticidal activity against Tyrophagus putrescentiae in compound treated rapeseed assessed as mortality (LD50) after 147 days (reference value: 0.78 ug/cm'2); format: functional
[15] = tested on: Tyrophagus putrescentiae; experiment: Insecticidal activity against Tyrophagus putrescentiae in compound treated rapeseed assessed as mortality (LD50) after 126 days (reference value: 0.78 ug/cm'2); format: functional
[16] = tested on: Tyrophagus putrescentiae; experiment: Insecticidal activity against Tyrophagus putrescentiae in compound treated rapeseed assessed as mortality (LD50) after 105 days (reference value: 0.78 ug/cm'2); format: functional
[17] = tested on: Tyrophagus putrescentiae; experiment: Insecticidal activity against Tyrophagus putrescentiae in compound treated rapeseed assessed as mortality (LD50) after 84 days (reference value: 0.78 ug/cm'2); format: functional
[18] = tested on: Tyrophagus putrescentiae; experiment: Insecticidal activity against Tyrophagus putrescentiae in compound treated rapeseed assessed as mortality (LD50) after 63 days (reference value: 0.78 ug/cm'2); format: functional
[19] = tested on: Tyrophagus putrescentiae; experiment: Insecticidal activity against Tyrophagus putrescentiae in compound treated rapeseed assessed as mortality (LD50) after 42 days (reference value: 0.78 ug/cm'2); format: functional
[20] = tested on: Tyrophagus putrescentiae; experiment: Insecticidal activity against Tyrophagus putrescentiae in compound treated rapeseed assessed as mortality (LD50) after 21 days (reference value: 0.78 ug/cm'2); format: functional

In the case of `Cc1c(COC(=O)[C@@H]2[C@H](/C=C(\Cl)C(F)(F)F)C2(C)C)cccc1-c1ccccc1` [BIFENTHRIN], the Activity [1] is reported as 745 ppm/g/hr, the Activity [2] is reported as 896 ppm/g/hr and the Activity [3] is reported as “inactive”. For the same compound, the Activity [4] was “inactive”, the ED50 [5] was 2.7 µg and the Activity [6] was “Active”. It also gave an LD95 [7] of 1.8 microg/cm2, an LD95 [8] of 1.6 microg/cm2 and an LD95 [9] of 2.9 microg/cm2. It also gave an LD95 [10] of 2.3 microg/cm2, an LD95 [11] of 2 microg/cm2 and an LD95 [12] of 2.4 microg/cm2. The LD95 [13] was 1.6 microg/cm2, the LD50 [14] was 0.16 microg/cm2 and the LD50 [15] was 0.44 microg/cm2. The LD50 [16] was 1.14 microg/cm2, the LD50 [17] was 0.46 microg/cm2 and the LD50 [18] was 0.24 microg/cm2. The LD50 [19] was 0.65 microg/cm2 and the LD50 [20] was 0.44 microg/cm2.
